Results as given in the supplement of paper PMC11208160.

Test: recombinant barcode read abundance after kanamycin selection (control-corrected) (log10(CPM+1)); higher = more efficient recombination; sequences stand for … in AGTGCAGAGAAAATCGGCCAGTTTTCTCTGCCTGCAGTCCGCATGCCGT…AGATTTATGCAGCGGACTGCCTTTCTCCCAAAGTGATAAACCGGACAGTATCATGGACCGGTTTTCCCGGTAATCCGTATTTGCAAGGTTGGTTTCACT; site = the 11-nt target
Procedure, shortened: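 A vector carrying a T7-inducible recombinase and the last 73 bp of the bridge RNA received, by Gibson cloning, oligos encoding a promoter, target, barcode and the first 104 bridge RNA bases under J23119. The pooled constructs entered E. coli together with a donor plasmid by electroporation. Selection used chloramphenicol/ampicillin/kanamycin with 0.1 mM IPTG, with chloramphenicol/ampicillin LB agar as the control, each in two replicates. Recombination efficiency is the averaged, control-corrected counts-per-million of barcodes at recombinant junctions, reported as log10(CPM+1).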
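Note: IS621 recombinase and bridge RNA in Escherichia coli cells.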

Sequence | recombinant barcode read abundance (log10)
TCCGCTTCTTGGGTTCTAACCTGTTGCTT (site AATCGAGCTCC) | 0.0408
TCCGCTTCTTGGGTTCTAACCTGTTGCTT (site TCCGCTTCTAA) | 0.0659
TCCGGTACTTGGGTTCTAACCTGTTGCTT (site TCCAGTACTAA) | 0.0783
TCCGGTACTTGGGTTCTAACCTGTTGCTT (site TCCGGTACTAA) | 0.438
TCCTAACCTTGGGTTCTAACCTGTTGCCT (site TCCTAACCTAG) | 0.454
TCCTAACCTTGGGTTCTAACCTGTTGCCT (site TCCTAATCTAT) | 0.0117
TCCTAAGCTTGGGTTCTAACCTGTTGCGG (site TCCTAAGCTCC) | 1.67
TCCTAAGCTTGGGTTCTAACCTGTTGCGG (site TGCTAAGCTCA) | 0.276
TCCTAAGCTTGGGTTCTAACCTGTTGCTA (site TCCAAAGCTTA) | 0.05
TCCTAAGCTTGGGTTCTAACCTGTTGCTA (site TCCCAAGCTTA) | 0.227
TCCTAAGCTTGGGTTCTAACCTGTTGCTA (site TCCGAAGCTTA) | 0.372
TCCTAAGCTTGGGTTCTAACCTGTTGCTA (site TCCTAAGCTTA) | 0.161
TCCTAATCTTGGGTTCTAACCTGTTGCTT (site CGGGCTACTTG) | 0.284
TCCTAATCTTGGGTTCTAACCTGTTGCTT (site TCCTAATCTAA) | 0.111
TCCTATCCTTGGGTTCTAACCTGTTGCGA (site GTGGGAACTAA) | 0.0465
TCCTATCCTTGGGTTCTAACCTGTTGCGA (site TCCTATCCTTC) | 0.513
TCCTATGCTTGGGTTCTAACCTGTTGCCG (site GAAAGCTCTAC) | 0.0567
TCCTATGCTTGGGTTCTAACCTGTTGCCG (site TCCTATGCTCG) | 0.444
TCCTCGTCTTGGGTTCTAACCTGTTGCCT (site GCCTGGTCTAG) | 0.00881
TCCTCGTCTTGGGTTCTAACCTGTTGCCT (site TCCTCGTCTAG) | 0.669
TCCTGTACTTGGGTTCTAACCTGTTGCCT (site TCCTGTACTAG) | 0.239
TCCTGTACTTGGGTTCTAACCTGTTGCCT (site TCCTGTCCTAT) | 0.108
TCCTTAGCTTGGGTTCTAACCTGTTGCCG (site TCCTGAGCTCA) | 0.155
TCCTTAGCTTGGGTTCTAACCTGTTGCCG (site TCCTTAGCTCG) | 0.0503
TCGAACCCTTGGGTTCTAACCTGTTGCGG (site TCAAACCCTCC) | 0.991
TCGAACCCTTGGGTTCTAACCTGTTGCGG (site TCCAACCCTCC) | 0.168

Sequence | recombinant barcode read abundance (log10)
TCGAACCCTTGGGTTCTAACCTGTTGCGG (site TCGAACCCTCC) | 0.851
TCGAACCCTTGGGTTCTAACCTGTTGCGG (site TCTAACCCTCC) | 0.0521
TCGAAGCCTTGGGTTCTAACCTGTTGCCT (site TCGAAACCTAG) | 0.0823
TCGAAGCCTTGGGTTCTAACCTGTTGCCT (site TCGAACCCTAG) | 0.207
TCGAAGCCTTGGGTTCTAACCTGTTGCCT (site TCGAAGCCTAG) | 0.324
TCGAAGCCTTGGGTTCTAACCTGTTGCCT (site TCGAATCCTAG) | 0.101
TCGAATTCTTGGGTTCTAACCTGTTGCCT (site TCGAATTCTAG) | 0.109
TCGAATTCTTGGGTTCTAACCTGTTGCCT (site TCGATGTCTAG) | 0.0943
TCGAGAGCTTGGGTTCTAACCTGTTGCCG (site TCGAGAGCTCG) | 0.441
TCGAGAGCTTGGGTTCTAACCTGTTGCCG (site TCGAGAGCTTA) | 0.203
TCGAGTCCTTGGGTTCTAACCTGTTGCCT (site TCGAGTACTAG) | 0.766
TCGAGTCCTTGGGTTCTAACCTGTTGCCT (site TCGAGTCCTAG) | 0.101
TCGAGTCCTTGGGTTCTAACCTGTTGCCT (site TCGAGTGCTAG) | 0.179
TCGAGTCCTTGGGTTCTAACCTGTTGCCT (site TCGAGTTCTAG) | 0.0383
TCGAGTTCTTGGGTTCTAACCTGTTGCCT (site TCGAGTACTAG) | 0.0829
TCGAGTTCTTGGGTTCTAACCTGTTGCCT (site TCGAGTCCTAG) | 0.0637
TCGAGTTCTTGGGTTCTAACCTGTTGCCT (site TCGAGTGCTAG) | 0.0736
TCGAGTTCTTGGGTTCTAACCTGTTGCCT (site TCGAGTTCTAG) | 0.174
TCGCACACTTGGGTTCTAACCTGTTGCTA (site TCGCACACTTA) | 0.148
TCGCACACTTGGGTTCTAACCTGTTGCTA (site TCGCACTCTTA) | 0.0853
TCGCCTGCTTGGGTTCTAACCTGTTGCCT (site TCGCCTACTAG) | 0.282
TCGCCTGCTTGGGTTCTAACCTGTTGCCT (site TCGCCTGCTAG) | 0.191
TCGCTAACTTGGGTTCTAACCTGTTGCCT (site GCGCTAACTAG) | 0.145
TCGCTAACTTGGGTTCTAACCTGTTGCCT (site TCGCTAACTAG) | 0.322
TCGGACCCTTGGGTTCTAACCTGTTGCGA (site TCGAACCCTTC) | 1
TCGGACCCTTGGGTTCTAACCTGTTGCGA (site TCGCACCCTTC) | 0.12

Sequence | recombinant barcode read abundance (log10)
TCGGACCCTTGGGTTCTAACCTGTTGCGA (site TCGGACCCTTC) | 2.73
TCGGACCCTTGGGTTCTAACCTGTTGCGA (site TCGTACCCTTC) | 0.23
TCGGAGTCTTGGGTTCTAACCTGTTGCCG (site TCGGAGTCTCA) | 0.0935
TCGGAGTCTTGGGTTCTAACCTGTTGCCG (site TCGGAGTCTCG) | 1.17
TCGGAGTCTTGGGTTCTAACCTGTTGCGT (site TCGGAGTCTAA) | 0.499
TCGGAGTCTTGGGTTCTAACCTGTTGCGT (site TCGGAGTCTAC) | 2.55
TCGGAGTCTTGGGTTCTAACCTGTTGCGT (site TCGGAGTCTAG) | 0.969
TCGGAGTCTTGGGTTCTAACCTGTTGCGT (site TCGGAGTCTAT) | 2.39
TCGGATACTTGGGTTCTAACCTGTTGCAT (site TCGGATACTAA) | 0.31
TCGGATACTTGGGTTCTAACCTGTTGCAT (site TCGGATACTAC) | 0.0629
TCGGATACTTGGGTTCTAACCTGTTGCAT (site TCGGATACTAG) | 0.173
TCGGATACTTGGGTTCTAACCTGTTGCAT (site TCGGATACTAT) | 1.57
TCGGATACTTGGGTTCTAACCTGTTGCCT (site TCGGATACTAA) | 0.119
TCGGATACTTGGGTTCTAACCTGTTGCCT (site TCGGATACTAC) | 0.0175
TCGGATACTTGGGTTCTAACCTGTTGCCT (site TCGGATACTAG) | 1.54
TCGGATACTTGGGTTCTAACCTGTTGCCT (site TCGGATACTAT) | 0.0399
TCGGATACTTGGGTTCTAACCTGTTGCGT (site TCGGATACTAA) | 0.0447
TCGGATACTTGGGTTCTAACCTGTTGCGT (site TCGGATACTAC) | 2.05
TCGGATACTTGGGTTCTAACCTGTTGCGT (site TCGGATACTAG) | 0.265
TCGGATACTTGGGTTCTAACCTGTTGCGT (site TCGGATACTAT) | 1.41
TCGGATGCTTGGGTTCTAACCTGTTGCTT (site TCGAATGCTAG) | 0.349
TCGGATGCTTGGGTTCTAACCTGTTGCTT (site TCGGATGCTAA) | 0.901
TCGGGGACTTGGGTTCTAACCTGTTGCCG (site TCAGGGACTCT) | 0.183
TCGGGGACTTGGGTTCTAACCTGTTGCCG (site TCGGGGACTCG) | 0.601
TCGTACCCTTGGGTTCTAACCTGTTGCAA (site AAAATATCTAG) | 0.083
